Measured values reported in patent US20210379151A1 (ACADEMIA SINICA, priority 2018, published 2021).
Structures can show the parent of a compound that is named as a salt. Where two headings read alike, the source gives them in different places. One block for each molecule: values may come before it.

Assays:
BBB [1] = assay: Doxorubicin biodistribution (HPLC)
Description: Organs were removed, dried, weighed, cut into multiple smaller pieces (approximately 100 mg tissue or 100 μl plasma) then thoroughly homogenised with 1 ml lysis buffer (0.25 M sucrose, 5 mM Tris-HCl, 1 mM MgSO4, 1 mM CaCl2, pH 6.7). 200 μl homogenate was then mixed with 1 ml acidified alcohol (70% ethanol, 0.3 N HCl), left overnight at −20° C., then centrifuged at 10,000×g for 30 minutes at 4° C. Supernatant was taken for HPLC analysis. Separation was via a Waters e2695 separation module, mobile phase 35% 10 mM KH2PO4, 65% methanol, flow rate 1 ml/min in an X-Bridge 5 μm column at 40° C. Detection used a Waters e2475 module (ex 480, em 600 nm).
Aryal et al., J. Control. Release, 204, 60-69 (2015); Kovacs et al., 2014; and Wohlfart et al., J Control Release, 154 (1), 103-107 (2011). […] The drug was allowed to circulate for two hours before the animal was perfused with saline. Doxorubicin was then extracted from the vital organs and quantified by HPLC (FIG. 8c). […] FIG. 2b.

[2] = tested on: pericyte coverage of blood vessels
From the text: (§1) Brain tumours from mice which died between day 60 to day 70 were selected for immunofluorescence staining. […] Primary antibodies and dilutions used were anti-Ki67 (1:500 GeneTex GTX16667), Isolectin IB4-AlexaFluor 647, anti-GFAP (1:500 AbCam ab68428), anti-Iba1 (1:1000 Wako 019-19741), anti-p-glycoprotein (1:100 AbCam ab170904), anti-pdgfrβ (1:100, ab32570 Abcam), anti-claudin-5 (1:50 34-1600 Thermo Fisher Scientific), anti-CD31 (1:100 550274, BD Pharmingen). Samples were fixed in 4% w/v paraformaldehyde (PFA) pH 6.8 overnight, embedded in paraffin and sectioned. Slides were de-waxed with xylene, rehydrated through graded alcohols to water, then subjected to antigen retrieval, permeabilisation and blocking in accordance with the manufacturers' instructions. Primary antibody was applied overnight at 4° C. diluted in blocking buffer, apart from isolectin, which was applied for one hour at room temperature. Slides were washed 3× with PBS, before the second primary antibody was added and left overnight at 4° C. Secondary antibodies used were goat anti-rabbit IgG-AlexaFluor 568 (Invitrogen A-11011) and goat anti-rat IgG-AlexaFluor 488 (Invitrogen A-11006), applied for one hour at room temperature. At least three separate sections were examined, and at least three images were captured per section. For frozen sections, samples were perfusion fixed then submerged in 4% paraformaldehyde (PFA), cryoprotected in 30% w/v sucrose solution, then frozen in OCT, sectioned and stained as above, continuing on from blocking. H&E staining (Mayers) followed standard lab protocols. Images were captured using a Zeiss AxioScop microscope with AxioFluor objective lenses and AxioVision software, or a Model-Zeiss LSM 700 Stage confocal microscope.
(§2) GraphPad Prism 7.0b (Mac) was used for all statistical analysis and graph generation. For before-after analyses, paired t-test was used, and for grouped analyses one or two-way ANOVA (analysis of variance) with Tukey's post-test to correct for multiple comparisons were used. For tumour survival analyses, deaths were recorded and used to generate Kaplan-Meier survival curves which were compared using Mantel-Cox log rank tests. IVIS images of tumour luminescence and nanoparticle fluorescence were quantified using Living Image 4.0 software for Mac. MRI DICOM images were sorted in MicroDicom (Windows) and SNR calculation was performed in FIJI/ImageJ (Mac) using the measure tool. For heatmap generation, voxels within the animal were compared to the average of a 64*64 voxel region in the corner of the frame and the difference was scaled from 0 to 100, using Python. Adjustments to immunofluorescence image brightness and contrast were made to improve visual clarity and were applied equally to all images within a series. For colocalisation analysis, the raw images were analysed in Zeiss ZEN software. The threshold for no colocalisation was established using the DAPI/CD31 channels, and that threshold was then applied to the other channels. Pericyte alignment analysis was carried out using the freehand line selection tool in ImageJ. Figures were assembled in Affinity Designer (Mac).

claudin 5 = tested on: claudin 5
From the text: as §1, §2

BBB [3] = conditions: mice
Description: After 30 minutes circulation, 50 ml phosphate buffered saline (PBS) was perfused through the abdominal aorta. Organs were removed, cut into multiple smaller pieces, rinsed, dried, weighed, homogenised in 500 μl formamide, heated at 60° C. overnight and centrifuged at 21,000×g for 15 minutes. Supernatant absorbance was measured at 620 nm with background correction at 740 nm, and unknowns quantified by standard curve. […] Radu et al., J. Vis. Exp., No. 73, e50062 (2013).
Concentrations from multiple pieces of the same organ were averaged. For imaging of Evans blue extravasation, a method from del Valle and colleagues was adapted. del Valle et al., J. Neurosci. Methods, 174 (1), 42-49 (2008). Mice were intracardially perfused with 50 ml PBS followed by 50 ml of Evans blue (1% w/v) in paraformaldehyde (4% w/v). Cryolesion injury, to induce a local area of BBB damage, was used as a positive control. The brain was embedded in optimal cutting temperature compound (OCT) and cryosectioned into 20 μm thick sections for analysis.

BBB [4] = conditions: pigs, VEGF vs control
From the text: One minute later, a series of three post-contrast images were taken at the same settings. The two pre-contrast images were averaged, and the post contrast image with the highest SNR from each animal was selected for analysis.

[5] = tested on: DBTRG-05MG human glioblastoma cell line; assay: MTT assay cell viability; format: cell-based; conditions: VEGF up to 100 ng/ml
Description: DBTRG-05MG human glioblastoma cells were used in this study. DBTRG-05MG cells were routinely cultured at 37° C. in RPMI 1640 media supplemented with 10% FBS, 1 mM sodium pyruvate and 1% penicillin/streptomycin. MTT assay was carried out in accordance with the manufacturer protocol. For GBM tumour generation, 300,000 live DBTRG-05MG cells, suspended in 6 μl sterile saline, were administered to 6 week old BALB/c NU mice by stereotactic injection, […] The location was 2 mm posterior to the bregma, 1.5 mm laterally in the right cerebral hemisphere, and 2.5 mm deep from the dura, thus delivering the cells into the thalamus. Baumann et al., J. Vis. Exp., No. 67, 3-6 (2012). Bone wax was applied to the skull and the skin was closed with sutures. The success rate of xenograft tumour formation was approximately 90%. Animal deaths were recorded when the animal succumbed from tumour progression, or upon sacrifice if they met pre-determined criteria including severe cachexia (loss of >25% starting body weight), inability to feed, and lack of response to toe-pinch stimulus. Gholamin et al., Cureus, 4, 1-14 (2013).

BBB [6] = conditions: mice; remark: listed apart in the source
Description: For mice, a Pharmascan 7T 16-cm bore horizontal system was operated by a technician. […] Pre-contrast T1-weighted spin echo images were taken (repetition time (TR)=400 ms, echo time (TE)=10.8 ms, field of view (FOV)=2×2 cm, number of excitations (NEX)=8, slice thickness 0.8 mm). […] Post-contrast T1-weighted images were acquired one minute after contrast agent injection. The SNR was calculated by dividing the signal of a ROI (mean pixel intensity) by the standard deviation of the background noise. All image acquisition, SNR measurement and tumour volume measurement was performed by two MRI operating technicians, who were blinded to the study groups.

brain blood vessels = tested on: brain blood vessels
Description: Mice were anaesthetised and perfused with PBS followed by 100 ml 4% PFA in […] phosphate buffer, pH 7.4. The brain was removed and post-fixed in 4% PFA (overnight, 4° C.) and washed in PBS. Coronal brain sections (100 μm thick) were cut on the same day with a cryomicrotome and processed free floating. Sections were immersed in 4% PFA, 2.5% glutaraldehye in PBS (overnight, 4 ° C.), washed with PBS for 5 minutes for 3 times. The specimens were immersed in 1% osmium tetroxide for 45 minutes, dehydrated and embedded with Spurr's low viscosity resin. The sample was then trimmed and sectioned using a Leica EM UC6 ultramicrotome. The ultrathin sections were then double stained with uranyl acetate and lead citrate. Images were acquired using Jeol JEM 1200EX TEM with an acceleration voltage of 80 KV.

[7] = tested on: key genes related to BBB integrity
Description: Samples of mouse cerebral cortex weighing approximately 50 mg were homogenised in Trizol, and total RNA extracted via the manufacturer's protocol, then quantified by Nanodrop. Samples were reverse transcribed to cDNA using a SuperScript III Reverse-Transcriptase Kit (Life Technology). OmicsGreen qPCR SYBR Green master mix (Omics Bio, Taiwan) was used to monitor amplification using an Applied Biosystems 7500 Real-Time PCR system. GAPDH was used an internal control.

Claudin-5 = conditions: after VEGF administration
BBB [8] = conditions: antibody 45 minutes following VEGF; preliminary evidence
astrocytes = conditions: between treatment groups
From the text: as §1, with “For frozen sections, samples were perfusion fixed then submerged in 4% paraformaldehyde (PFA), cryoprotected in 30% w/v sucrose solution, then frozen in OCT, sectioned and stained as above, continuing on from blocking. H&E staining (Mayers) followed standard lab protocols. Images were captured using a Zeiss AxioScop microscope with AxioFluor objective lenses and AxioVision software, or a Model-Zeiss LSM 700 Stage confocal microscope.” left out

P-glycoprotein = conditions: all time points after VEGF
From the text: as §1, with “For frozen sections, samples were perfusion fixed then submerged in 4% paraformaldehyde (PFA), cryoprotected in 30% w/v sucrose solution, then frozen in OCT, sectioned and stained as above, continuing on from blocking. H&E staining (Mayers) followed standard lab protocols. Images were captured using a Zeiss AxioScop microscope with AxioFluor objective lenses and AxioVision software, or a Model-Zeiss LSM 700 Stage confocal microscope.” left out

BBB [9] = assay: HPLC quantification of TMZ in brain; format: in vivo; conditions: mice
Description: Approximately 100 mg tissue was homogenised in acidified ammonium acetate (200 μl, 10 mM pH 3.5), zinc sulphate (200 μl, 100 mM) and methanol (400 μl), followed by centrifugation at 10,000×g for 30 minutes at 4° C. Supernatant was taken for HPLC analysis. Separation was carried out with a Water e2695 separation module using 80:20 ratio of acetic acid (0.1% v/v) to methanol at a flow rate of 0.8 ml/min in an Atlantis T3 3 μm HPLC column at 35° C. Detection was performed using a Waters 2489 UV/vis detector at 316 nm. Theophylline was used as an internal standard, measured at 275 nm, and results calculated as the peak ratio of TMZ to theophylline.

[10] = GBM tumour region, VEGF pre-treatment
[11] = mouse brain 45 minutes or 4 hours following VEGF

doxorubicin concentration in brain after VEGF pre-treatment vs. control (BBB [1]; 8 mg/kg 45 minutes after VEGF, mice): statistically significant increase
systemic Doxorubicin entering the brain (BBB [1]; healthy control mice, 8 mg/kg, two hours circulation): less than 0.1%
Molecule: COc1cccc2c1C(=O)c1c(O)c3c(c(O)c1C2=O)C[C@@](O)(C(=O)CO)C[C@@H]3O[C@H]1C[C@H](N)[C@H](O)[C@H](C)O1 [Doxorubicin, Doxorubicin Hydrochloride]

Molecule: VEGF
pericyte coverage of blood vessels [2, 10]: 28.9%
pericyte coverage of blood vessels ([2]; healthy brain, 15 minutes after VEGF): 57.6%
pericyte coverage of blood vessels ([2]; healthy brain, 45 minutes after VEGF): 86.2%
pericyte coverage of blood vessels ([2]; healthy brain, 4 hours after VEGF): 83.0%
colocalisation of claudin 5 and CD31 (claudin 5; [10]): 48.5%
colocalisation of claudin 5 and CD31 (claudin 5; healthy brain, 45 minutes following VEGF): 55.8%
colocalisation of claudin 5 and CD31 (claudin 5; healthy brain, 4 hours following VEGF): 42.7%
Evans blue uptake in kidney (BBB [3]; 45 minutes after VEGF): increase
concentration of Evans blue in brain tissue compared to control-treated animals (BBB [3]; Evans blue 45 minutes after VEGF, 30 minutes circulation): 4.85 fold
concentration of Evans blue in brain tissue compared to control (BBB [3]; Evans blue 4 hours following VEGF): no increase was detected
SNR enhancement of the central cerebral sinus (BBB [4]): no significant difference
effect on DBTRG-05MG cell viability [5]: did not affect
increase in average SNR of the cortex, post- vs pre-contrast (BBB [6]; Gd given 45 minutes following VEGF): 16%
SNR enhancement of the cortex, post- vs pre-contrast (BBB [6]; Gd given 4 hours after VEGF): less than 5%
signal enhancement of area surrounding central cerebral sinus (BBB [6]; VEGF vs control groups): no significant difference between the groups
morphology of brain blood vessels (TEM) (brain blood vessels; 15 minutes following VEGF injection): slightly dilated and lacking adjacent pericytes
morphology of brain blood vessels (TEM) (brain blood vessels; 45 minutes following VEGF): no longer dilated
morphology of brain blood vessels (TEM) (brain blood vessels; four hours following VEGF): both vessels and pericytes appeared normal
p-glycoprotein gene expression (Abcb1a) ([7]; following VEGF at the given dose): No change
expression of BBB transporters Slc2a1 (GLUT-1) and Slc6a8 (CRT) [7, 11]: increase
expression of tight junction components Tjp2 (ZO-2) and Cldn5 (Claudin 5) [7, 11]: decrease
Claudin-5 protein expression (Western blot) (Claudin-5): trend towards reduced protein expression
passage of systemically injected IgG antibody into the brain (BBB [8]): allows the passage of systemically injected IgG antibody into the brain
astrocyte morphology (GFAP) (astrocytes): no obvious change
P-glycoprotein staining (P-glycoprotein): appeared uniformly on the membrane of blood vessels at all time points

brain concentration of TMZ after VEGF pre-treatment (BBB [9]; TMZ 20 mg/kg): did not further enhance
TMZ concentration in the brain after VEGF pre-treatment (BBB [9]; VEGF or 10-fold higher VEGF): does not significantly increase
Molecule: Cn1nnc2c(C(N)=O)ncn2c1=O [TMZ, Temozolomide]
